Tests used:
[1] = tested on: cultured neuronal network (cortical neurons); assay: Spiking activity of cultured cortical neuronal network on multi electrode array (MEA); format: cell-based, rat
Description: Cortical neurons were obtained from newborn rats within 24 hours from birth, following standard harvesting procedures (Culturing nerve cells, 2nd edition, Gary Ranker and Kimberly Goslin, 1998). The cortex tissue was digested enzymatically and mechanically dissociated and the neurons were plated directly onto substrate-integrated multi-electrode array (MEA) dishes prepared as described below. The cultures were bathed in MEM which was supplemented with heat-inactivated horse serum (5%), Glutamine (0.5 mM), Glucose (20 mM), and Gentamycin (10 μg/ml), and maintained in a tissue culture incubator at 37° C., 5% CO2 and 95% during the recording phases. Half of the medium was exchanged twice a week and the experiments were performed during the third week following plating, thus allowing complete maturation of the neurons (FIGS. 1a-b).
Arrays of 60 Ti/Au/TiN electrodes, 30 μm in diameter, spaced 200 μm from each other (MultiChannelSystems (MCS), Reutlingen, Germany) were utilized in the present study. The insulation layer (silicon nitride), was pretreated with poly-L-lysine forming a good surface for network development. A commercial 60-channel amplifier (B-MEA-1060, MCS, Reutlingen, Germany) with frequency limit range of 10-3000 Hz and a gain of ×1024 was utilized for signal amplification. The amplifier was connected to MCPPlus filter amplifiers (Alpha Omega, Nazareth, Israel) for further amplification (×10 to ×20). Stimulation through the MEA was performed using a dedicated 8-channel stimulus generator (MCS, Reutlingen, Germany).
In addition, the micro-incubation environment was arranged to support long-term recordings from MEA dishes. This was achieved by streaming a filtered, heated and humidified air/CO2 (95/5%) gas mixture, and by electrically heating the MEA platform to 37° C. Data is digitized using two 5200a/526 A/D boards (Microstar Laboratories, Wash., USA).
Following electrical functionality determination, the neuronal network cultures were incubated with various electrical conduction blockers.

[2] = tested on: left ventricular myocardium grafted with naive fibroblasts; assay: ERP after Margatoxin in rats grafted with naive fibroblasts (control group); format: in vivo, rat; conditions: animals grafted with naive fibroblasts, 88±4 ms before blocker
Description: Rat model—Male Sprague-Dawley rats weighing 200-250 gr were anesthetized using A Xylasine (0.5 mg/kg) and Ketamine (0.5 mg/kg) preparation [see Example 7]. The animals were then intubated and ventilated using a Harvard small-animal mechanical respirator. The chest wall was opened using a left thoracotomy and the heart was exposed. After removal of the pericardium, a total of 6×10^6 cells (either fibroblasts without transfections in the control group or fibroblast overexpressing the KV1.3 channel in the study group) were transplanted into the anterior aspect of the left ventricular wall using a 28 g needle. In order to prevent graft rejection, all animals were treated with a daily dose of cyclosporin (10 mg/kg) and methyprednisolone (2 mg/kg). […]
In vivo electrophysiological studies—The electrophysiological study in rats included a standard ventricular pacing protocol to determine the local myocardial effective refractory period (ERP). The ERP was evaluated by applying a train of 20 stimuli at a fixed cycle-length of 200 ms (S1), followed by a single premature stimulus (S2). […] The ERP was determined as the shortest S1-S2 coupling interval still capable of eliciting a ventricular response. […]
The ERP was measured at the site of cell transplantation and at remote sites, both prior to cell transplantation and seven days following cell grafting. […]

[3] = tested on: Kv 1.3 channel of grafted fibroblasts in left ventricular myocardium; assay: ERP after Margatoxin in rats grafted with Kv1.3 fibroblasts; format: in vivo, rat; conditions: 9 μg/kg intraperitoneal bolus; for local ventricular ERP at the site of cell transplantation after MTx, group mean: 154±13 ms before blocker (FIG. 19b)
Description: Rat model—Male Sprague-Dawley rats weighing 200-250 gr were anesthetized using A Xylasine (0.5 mg/kg) and Ketamine (0.5 mg/kg) preparation [see Example 7]. The animals were then intubated and ventilated using a Harvard small-animal mechanical respirator. The chest wall was opened using a left thoracotomy and the heart was exposed. After removal of the pericardium, a total of 6×10^6 cells (either fibroblasts without transfections in the control group or fibroblast overexpressing the KV1.3 channel in the study group) were transplanted into the anterior aspect of the left ventricular wall using a 28 g needle. In order to prevent graft rejection, all animals were treated with a daily dose of cyclosporin (10 mg/kg) and methyprednisolone (2 mg/kg). The animals underwent a detailed electrophysiological study (see below) immediately before cell grafting and 7 days post-transplantation.
In vivo electrophysiological studies—The electrophysiological study in rats included a standard ventricular pacing protocol to determine the local myocardial effective refractory period (ERP). The ERP was evaluated by applying a train of 20 stimuli at a fixed cycle-length of 200 ms (S1), followed by a single premature stimulus (S2). The S1-S2 coupling interval was gradually shortened. The ERP was determined as the shortest S1-S2 coupling interval still capable of eliciting a ventricular response. Stimuli were generated using a computer controlled STG 1004 stimulus generator with the matching MC-Stim software (both from Multi Channel Systems, Reutlingen, Germany).
The ERP was measured at the site of cell transplantation and at remote sites, both prior to cell transplantation and seven days following cell grafting. In order to dissect the role of the overexpressed channel in altering the local myocardial electrophysiological properties, the ERP was measured also at each site following application of 9 μg/kg of Margatoxin (Alomone Labs, Jerusalem, Israel), a specific Kv 1.3 channel blocker as an intraperitoneal bolus.

[4] = tested on: Kv1.3 channel of grafted fibroblasts in right ventricle; assay: ERP after local Margatoxin in pigs grafted with Kv1.3 fibroblasts; format: in vivo, pig
Description: Swine model—Three domestic pigs (20-30) kg were studied. Anesthesia was induced with 5-10 ml of intravenous sodium pentothal 2.5% solution and maintained with inhaled isoflurane (2%) in oxygen. Following a right thoracotomy, each heart was exposed and a total of 6×10^6 cells were transplanted at a total of 7 different locations in the anterior free wall of the right ventricle. Cells were delivered using a 25 g needle using an injection volume of 250 μl. The sites of cell transplantation were marked with a suture. To prevent graft rejection, the animals were treated with an immunosuppressive regimen (cyclosporine, 10 mg/kg/d and methylprednisolone, 3 mg/kg/d). 7 days following cell transplantation, a second thoracotomy and a detailed epicardial electrophysiological study were performed.
The ERP in the pigs was measured in a similar manner to that in the rats but using slower basic stimulation intervals (CLs of 350, 400 and 500 ms). The ERP was measured at the site of cell transplantation as well as in remote sites and also following local intramyocardial injection of Margatoxin at the examined sites.

[5] = tested on: cardiomyocytes co-cultured with fibroblasts (NIH 3T3) transfected with voltage gated potassium channel Kv1.3; assay: CTX on MEA-recorded activity of cardiomyocytes co-cultured with Kv1.3 transfected fibroblasts (Example 5); format: cell-based, rat; conditions: for increase of spontaneous activity rate: co-cultures with transfected fibroblasts
Description: (§1) Monolayer cultures of neonatal rat ventricular cardiomyocytes (NRVM) were prepared as previously described (Rubin et al, 1995), with some modifications. The cultures were maintained in a humidified incubator under a controlled environment of 5% CO2+95% air at 37° C.; fresh medium was replaced on alternating days.
(§2) Fibroblasts from the NIH 3T3 cell line were transfected with an expression cassette which included a mutant voltage gated potassium channel (Kv1.3) coding sequence (GeneBank Accession number H18261) placed under the transcription control of a constitutive promoter using standard procedures. Fibroblast cultures not transfected with the channel coding sequence were produced from the NIH 3T3 cell-line.
Once well synchronous spontaneous activity was established in the cardiomyocyte cultures, fibroblasts transfected with the Kv1.3 channel coding sequence or non-transfected fibroblasts were added to the cultures. Two different methods where used to seed the fibroblasts. In the first method, the fibroblast were suspended in trypsin for 5 minutes following which they were seeded in a diffuse pattern in the cardiomyocytic cultures (FIG. 4a). In the second method, the fibroblasts where pipetted up and down through a 5 ml pipette for 2 minutes and seeded in the cardiomyocytic cultures thus were forming clusters of fibroblasts (FIG. 4b).
Extracellular recordings from cultured cardiomyocytes were performed on a PC-based Microelectrode Data Acquisition System (Multi Channel Systems, Reutlingen, Germany), consisting of Multi-Electrode Array (MEA), pre- and filter-amplifiers, data acquisition board, and software. The MEA consists of a 50×50 mm glass substrate, in the center of which is an embedded 0.7×0.7 or 1.4×1.4 mm matrix of 60 Titanium-nitride, gold contacts 10 or 30 μm diameter electrodes insulated with silicone nitride, with inter-electrode distance of 100 or 200 μm (there are no electrodes in the corners of the matrix). Data were recorded at 10-25 KHz with 12-bit precision. During the recording sessions, the MEA (removed from the regular incubator) was constantly perfused with a gas mixture consisting of 5% CO2+95% air. Temperature was kept at 37±0.10° C.
Recorded data was filtered using cutoff frequency of 2 KHz (Fast et al, 1993). The filtered signal was then differentiated digitally to determine the Local Activation Time (LAT) at each electrode, corresponding to dF/dtmin (where F is the filtered signal) (Dolber and Spach, 1986). Color-coded activation maps were constructed by interpolating the LAT values for the sites between the electrodes, and by extrapolating the LAT values for the 4 corners of the MEA matrix. Activation maps were plotted by means of Matlab standard 2-d plotting function (pcolor) (Matlab 5.3 Mathworks Incorporated©). Conduction velocity was calculated by standard methods (Bayly et al, 1988).
(§3) Conduction block quantification is central to evaluating conduction block development in the cell cultures, and to evaluating reversibility of the conduction block following CTX application. A conduction block was determined using the following algorithm: […]
(§4) Electrical activity of the cultures was recorded on day one immediately prior to seeding of the fibroblasts and then daily until the cultures died or no spontaneous activity was detected. […]

[6] = tested on: cardiomyocyte cultures or cardiomyocytes co-cultured with untransfected fibroblasts; assay: CTX on MEA-recorded activity of control cultures (Example 5); format: cell-based, rat; conditions: for increase of spontaneous activity rate: control cultures
Description: as §1, §2
Once well synchronous spontaneous activity was established in the cardiomyocyte cultures, fibroblasts transfected with the Kv1.3 channel coding sequence or non-transfected fibroblasts were added to the cultures. Two different methods where used to seed the fibroblasts. In the first method, the fibroblast were suspended in trypsin for 5 minutes following which they were seeded in a diffuse pattern in the cardiomyocytic cultures (FIG. 4a). […]
Extracellular recordings from cultured cardiomyocytes were performed on a PC-based Microelectrode Data Acquisition System (Multi Channel Systems, Reutlingen, Germany), consisting of Multi-Electrode Array (MEA), pre- and filter-amplifiers, data acquisition board, and software. […] Data were recorded at 10-25 KHz with 12-bit precision. […]
Recorded data was filtered using cutoff frequency of 2 KHz (Fast et al, 1993). […] Conduction velocity was calculated by standard methods (Bayly et al, 1988).
as §3, §4

[7] = tested on: cardiomyocyte cultures seeded with Kv1.3 expressing fibroblasts; assay: CTx on spontaneous beating rate of study co-cultures (Kv1.3 expressing fibroblasts) (Example 8); format: cell-based, rat; conditions: CTx 100 nM, study group (FIG. 18b)
Description: (§5) Expression system and electrophysiological recordings—NIH 3T3 fibroblast cells (ATCC: CRL 1658) were stably transfected to express the voltage gated potassium channel Kv1.3 as previously described [Feld Y. et al. Circulation. (2002); 105:522-529]. Briefly, stable transfection of pRC/CMV/Kv1.3 in fibroblasts was achieved using electroporation with a single pulse of 200 V, 960° F. followed by antibiotic selection of NeoR clones with 400 μg/mL of G-418 (GIBCO, Langley, Okla., USA). Colonies were picked and tested for channel expression using whole-cell patch clamp recordings. The recordings were conducted at room temperature using Axopatch 200 (Axon Instruments). Kv1.3 expressing fibroblast were generated as previously described [Feld Y. et al. Circulation. (2002); 105:522-9]. […]
(§6) Once a well synchronous spontaneous activity was established in the cardiomyocyte cultures, fibroblasts (naïve, or Kv1.3 expressing fibroblasts) were seeded in a diffuse manner into the cardiomyocytic cultures. Two groups were studied: The cultures were studied daily, and the electrophysiological properties, essentially the spontaneous beating rate of the culture, was assessed at baseline and following application of the specific Kv1.3 blocker, Charybdotoxin (CTx), at increasing dosages (1, 10, 100 nM). […]

[8] = tested on: cardiomyocyte cultures seeded with naive fibroblasts; assay: CTx on spontaneous beating rate of control co-cultures (naive fibroblasts) (Example 8); format: cell-based, rat; conditions: CTx application, control group
Description: as §5, §6

[9] = target: mutant voltage gated potassium channel Kv1.3 (GenBank Accession number H18261) expressed in NIH 3T3 fibroblasts; assay: cell-based or functional assay

N[C@H](CCCP(=O)(O)O)C(=O)O [APV, D-2-amino-5-phosphonovalerate]
spiking activity ([1]; 20 μM added to the cultured neuronal network): completely abolished

Margatoxin (TIINVKCTSPKQCLPPCKAQFGQSAGAKCMNGKCKCYPH)
local ERP after administration of Mtx, control group [2]: did not change significantly
local ventricular ERP at the site of cell transplantation after MTx, group mean [3]: 117 ± 7.70 ms
local ventricular ERP at the site of cell transplantation after MTx, group mean ([3]; listed as MTx): 117 ± 8 ms
ventricular ERP at the site of cell grafting after Margatoxin, one of the animals ([3]; 170 ms before blocker (FIG. 19a)): 100 ms
local ERP after local application of MTx ([4]; pig, basic CL 400 ms, 310 ms before blocker (FIG. 20a)): 220 ms
ventricular ERP after local application of MTx ([4]; pigs, all three CLs (FIG. 20b)): not different from the control sites

Charybdotoxin (QFTNVSCTTSKECWSVCQRLHNTSRGKCMNKKCRCYS) [CTX]
increase of spontaneous activity rate ([5]; CTX 10 nM): 20%
increase of spontaneous activity rate ([5]; CTX 100 nM): 55%
conduction block factor ([5]; application of Charybdotoxin, co-cultures with Kv1.3 transfected fibroblasts, n=10 (FIG. 11)): substantially decreased
conduction blocks ([5]; following treatment with CTX (10 nM, FIG. 7d; FIG. 11)): reversed
uncoupling effect after fibroblast seeding ([5]; following treatment with CTX (100 nM, FIGS. 6f-g)): reversed
increase of spontaneous activity rate ([6]; CTX 10 nM): did not increase
increase of spontaneous activity rate ([6]; CTX 100 nM): up to 15%
conduction block factor ([6]; application of Charybdotoxin, co-cultures with non-transfected fibroblasts, n=9 (FIG. 11)): minimal response
reversibility of the negative chronotropic effect induced by the transfected fibroblast [7]: full reversibility
beating frequency [8]: did not significantly alter

CN1CCc2cc3c(cc2[C@H]1[C@@H]1OC(=O)c2c1ccc1c2OCO1)OCO3 [bicuculin]
spiking activity ([1]; 5 μM added to the cultured neuronal network): completely abolished

Margatoxin (from UniProt P40755 1-39) (peptide)
local ventricular effective refractory period (ERP) at the graft site in one rat after Margatoxin (170 ms before) [9]: 100 ms

O=[N+]([O-])c1cc2nc(O)c(O)nc2cc1[N+](=O)[O-] [DNQX]
spiking activity ([1]; 10 μM added to the cultured neuronal network): completely abolished

— US20080112927A1, “Cells and methods utilizing same for modifying the electrophysiological function of excitable tissues” (GeneGrafts Ltd., priority 2006, published 2008)
